One block for each compound: values may come before it.
Experiments:
[1] = tested on: striatal dopamine; experiment: MPTP dopamine depletion model (mice, sacrificed 72 h after MPTP); format: in vivo, C57BL/6J mice; conditions: for Degree of protection, % (MPTP dopamine depletion test): Table 3, dose not given; for protection from MPTP neurotoxicity, % of control / protection from the neurotoxic action of MPTP (in words): 50 mg/kg; for Dopamine, nM/mg ± S.E.M., test compound / Protection, %: 50 mg/kg p.o.; for Dopamine, nM/mg ± S.E.M., test compound / Protection, % / % non-MPTP control (striatal dopamine): 15 mg/kg MPTP model; for Protection, %: versus methyl cellulose control (Standard); for % non-MPTP control (striatal dopamine) / Dopamine/mg protein ± S.E.M.: 30 mg/kg p.o.; for Dopamine/mg protein ± S.E.M.: 30 min before 15 mg/kg MPTP s.c.; for prevention of dopamine depletion following MPTP challenge (in words): Table 1 results, 30 mg/kg
Method: These findings have led to the development of an assay for agents effective in treating dopamine-associated neurodegenerative disorders, such as Parkinson's disease. In this assay, test animals are given an amount of MPTP adequate to severely depress their dopamine levels. Test compounds are administered to determine if they are capable of preventing the loss of dopamine in the test animals. To the extent that dopamine levels are retained, a compound can be considered to be an effective agent for slowing or delaying the course of neurodegenerative disease, e.g., Parkinson's disease. Dopamine Depletion Studies (MPTP Model) C57BL/6J mice were pretreated with either vehicle (1% methyl cellulose) or a drug (p.o.) 30 min before MPTP. MPTP was dissolved in isotonic saline (0.9%) and given subcutaneously as a single dose of 15 mg free base/kg body weight to produce a reduction in striatal dopamine to about 0.5 nanomoles/mg protein. Groups of mice (n=8-10 per group) received either vehicle plus saline, vehicle plus MPTP, or drug plus MPTP. Seventy two hours after receiving MPTP, mice were sacrificed using cervical dislocation and the striata were excised. The tissue was homogenized in 0.4 N perchloric acid, centrifuged, and the supernatant analyzed by high performance liquid chromatography/electro-chemical detection (HPLC/ED) for dopamine levels. Supernatants were stored in a -90° C. freezer between the time of collection and analysis. The drugs were combined with methyl cellulose and were homogenized in water for dosing. The dosage amount ranged from 10 to 50 mg/kg for CPI1160, CPI1189 and CPI1234, and from 50 to 100 mg/kg for CPI1020.

[2] = biological target: T1, Aβ(1-40) (Homo sapiens, UniProt P05067); experiment: Aβ(1-40) β-pleated sheet formation, Thioflavin T fluorescence; format: biochemical; conditions: Aβ(1-40) 3 μg, PBS pH 6.0, 4 hours, read-out: % Protection (β-pleated sheet formation)
T1 construct: aggregated fibrils of synthetic Aβ(1-40)
T1 sequence (P05067 672-711 limits assumed): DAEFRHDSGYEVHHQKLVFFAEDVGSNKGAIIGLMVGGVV
Source text: Effect of Benzamides on Aβ(1-40) β-Pleated Sheets Formation: Detection of Amyloid Aggregation in Solution by Thioflavin T Fluorescence Spectra
Several assays have been developed to assess the activity of compounds as agents for the treatment of Alzheimer's disease.
Thioflavin T (ThT) rapidly associates with β pleated sheets particularly the aggregated fibrils of synthetic Aβ(1-40), giving rise to a new excitation maximum at 440 nm and enhanced emission at 490 nm. According to this principle, agents which could delay or reverse the formation of such association might be of therapeutic benefit.
Experiments were performed in 96 well plates and the fluorescence changes were evaluated using Fluorescence plate reader-CytoFluor II. Briefly, into each well was aliquoted 95 μl of ThT (3 μM) prepared in PBS (pH 6.0), 2 μl of NRT (10 μM) prepared in 0.05% of methylcellulose in PBS (pH 6.0), and 3 μl of Aβ(1-40)(3 μg) prepared with dH2 O. The fluorescence measurement began when Aβ(1-40) was added and continued for 4 hours at which the aggregation reached a plateau. The % protection of β-pleated sheet formation was calculated from the relative fluorescence unit difference between aggregation in the presence and in the absence of test compounds.

[3] = tested on: striatal dopamine; experiment: Long term protective effect test in the MPTP model (sacrifice 3 or 14 days after dosing); format: in vivo, C57BL/6J mice
Method: C57BL/6J mice were pretreated with either vehicle (1% methyl cellulose) or a drug (p.o.) 30 min before MPTP. MPTP was dissolved in isotonic saline (0.9%) and given subcutaneously as a single dose of 15 mg free base/kg body weight to produce a reduction in striatal dopamine to about 0.5 nanomoles/mg protein. Groups of mice (n=8-10 per group) received either vehicle plus saline, vehicle plus MPTP, or drug plus MPTP. Seventy two hours after receiving MPTP, mice were sacrificed using cervical dislocation and the striata were excised. The tissue was homogenized in 0.4 N perchloric acid, centrifuged, and the supernatant analyzed by high performance liquid chromatography/electro-chemical detection (HPLC/ED) for dopamine levels. Supernatants were stored in a -90° C. freezer between the time of collection and analysis.
Additional studies were carried out to determine the long-term effect on dopamine depletion of the compounds of the invention. Using the general test method described above, C57BL/6J mice were pretreated with either vehicle or test compound and MPTP and then sacrificed either 3 or 14 days after dosing.

[4] = tested on: striatal dopamine; experiment: 6-Hydroxydopamine dopamine depletion model; format: in vivo, male Sprague Dawley rats; conditions: for Test side as percent of control side: right striatum injected with 6-hydroxydopamine
Method: Another assay for agents effective in treating dopamine-associated neurodegenerative disorders has been developed. In this assay, the striatum of test animals is injected with the neurotoxicant, 6-hydroxydopamine. 6-Hydroxydopamine has a dopamine-depleting action and is widely accepted as a model for these conditions. Test compounds are administered to determine if they are capable of preventing or reducing the loss of dopamine in the test animals. Again, to the extent that dopamine levels are retained, a compound can be considered an effective agent.
Tests were conducted to assess the ability of CPI-1189 to protect against 6-hydroxydopamine-induced damage. This is a widely accepted model for Parkinson's disease in which 6-hydroxydopamine is believed to produce its toxic effects by inducing oxidative stress. 6-hydroxydopamine has been used extensively since the 1960's as a neurotoxicant. Because 6-hydroxydopamine primarily affects catecholaminergic neurons, it has been mainly used for the experimental study of Parkinson's disease. The compound has had widespread use as a means of administering unilateral lesions in the nigrastriatal system. Animals treated with this toxin show biochemical and behavioral alterations that can be measured and probed pharmacologically to assess both the severity of the lesion and to determine the effect of potential therapeutic interventions.
The protective dose response of CPI-1189 to 6-hydroxydopamine-induced damage to the nigrastriatal system was determined. Damage to the nigrastriatal system was measured in terms of striatal dopamine levels.
Acclimated male Sprague Dawley rats, 55 to 120 days of age were used.
6-hydroxy-dopamine (Research Biochemicals Incorporated) was prepared in a 0.9% NaCl solution containing 0.1 mg/ml ascorbic acid on the morning of the experiment. […]
Immediately following sacrifice, dissected striatal tissue was collected and analyzed by HPLC/EC […] with the results shown in Table 5.

[5] = In vivo biotransformation of CPI1020 (metabolite in blood after oral administration); conditions: rats and mice, CPI1020 administered orally
Source text: Commonly owned U.S. Pat. No. 5,472,983, referred to above, discloses several benzamides useful in treating neurodegenerative diseases based on their protective action in the MPTP mouse model of Parkinson's disease. […] This compound is likely formed in the body by reduction of the ring nitro of CPI1020 to an amino moiety (CPI1160) followed by acetylation of the amino function.

Compound: CCC(C)(C)NC(=O)c1ccc(NC(C)=O)cc1 [CPI1233, N-tert-amyl-4-acetamidobenzamide]
Degree of protection, % (MPTP dopamine depletion test) [1]: 40%

Compound: CC(C)(C)NC(=O)c1ccc([N+](=O)[O-])cc1 [CPI1020, N-tert-butyl-4-nitrobenzamide, reference compound]
protection from MPTP neurotoxicity, % of control [1]: 56 % of control | protection from the neurotoxic action of MPTP (in words) [1]: not as effective | Dopamine, nM/mg ± S.E.M., test compound [1]: 0.58 ± .14 nM/mg | Protection, % [1]: 56%

Compound: CC(=O)Nc1cccc(C(=O)NC(C)(C)C)c1 [CPI1234, N-tert-butyl-3-acetamidobenzamide]
% non-MPTP control (striatal dopamine) [1]: 76.7% | Dopamine/mg protein ± S.E.M. [1]: 1.02 ± .05 /MG PROTEIN | prevention of dopamine depletion following MPTP challenge (in words) [1]: effective in preventing dopamine depletion | Degree of protection, % (MPTP dopamine depletion test) [1]: 77%

Compound: N-methylcyclopropyl-4-acetamidobenzamide [CPI1241]
Degree of protection, % (MPTP dopamine depletion test) [1]: 40%

Compound: CC(C)(C)NC(=O)c1ccc(N)cc1 [CPI1160, N-tert-butyl4-aminobenzamide]
% non-MPTP control (striatal dopamine) [1]: 93.9% | Dopamine/mg protein ± S.E.M. [1]: 1.25 ± .05 /MG PROTEIN | prevention of dopamine depletion following MPTP challenge (in words) [1]: effective in preventing dopamine depletion | Degree of protection, % (MPTP dopamine depletion test) [1]: 94%

inhibition at 10 µM [2]: 14.4 ± 14.4%
Compound: CC(C)NC(=O)c1ccc([N+](=O)[O-])cc1 [CPI1026, N-iso-propyl-4-nitrobenzamide]

Compound: CC(=O)Nc1ccc(C(=O)NC(C)C)cc1 [CPI1232, N-iso-propyl-4-acetamidobenzamide]
Degree of protection, % (MPTP dopamine depletion test) [1]: 70%

Compound: CC(=O)Nc1ccc(C(=O)NC(C)(C)C)cc1 [CPI1189, N-tert-butyl-4-acetamidobenzamide]
inhibition at 10 µM [2]: 48.3 ± 10.1% | % non-MPTP control (striatal dopamine) [1]: 89.7% | Dopamine/mg protein ± S.E.M. [1]: 1.37 ± .14 /MG PROTEIN | protection from MPTP neurotoxicity, % of control [1]: 105 % of control | protection from the neurotoxic action of MPTP (in words) [1]: complete protection | Dopamine, nM/mg ± S.E.M., test compound [1]: 1.57 ± .11 nM/mg | Protection, % [1]: 105% | prevention of dopamine depletion following MPTP challenge (in words) [1]: effective in preventing dopamine depletion | potency relative to CPI1020 in protecting mice from dopamine reduction in the striatum ([1]; s.c. MPTP): approximately 10 times | Striatal dopamine, percent of methyl cellulose/saline control ([3]; 3 Day Sac): 100% | Striatal dopamine, percent of methyl cellulose/saline control ([3]; 14 Day Sac): 96.7% | protection against MPTP induced dopamine depletion (in words) ([3]; sacrificed three days and fourteen days post MPTP): able to protect against MPTP induced dopamine depletion | Test side as percent of control side ([4]; 50 mg/kg oral): 72.82 ± 8.32% | Test side as percent of control side ([4]; 100 mg/kg oral): 77.61 ± 13.5% | protection against 6-hydroxydopamine induced dopamine depletion (in words) ([4]; rat, in vivo): able to protect against 6-hydroxydopamine induced dopamine depletion | in vivo biotransformation product of CPI1020 found in blood (in words) [5]: found in the blood of rats and mice

inhibition at 10 µM [2]: 31.7 ± 3.5%
Compound: CCC(C)(C)NC(=O)c1ccc([N+](=O)[O-])cc1 [CPI1033, N-tert-amyl-4-nitrobenzamide]
